From PMC3711248 (Journal of medicinal chemistry, 2013)

Tests used:
LYP = target: T1, LYP (Homo sapiens, UniProt Q9Y2R2); format: biochemical
T1 sequence (Q9Y2R2 1-303): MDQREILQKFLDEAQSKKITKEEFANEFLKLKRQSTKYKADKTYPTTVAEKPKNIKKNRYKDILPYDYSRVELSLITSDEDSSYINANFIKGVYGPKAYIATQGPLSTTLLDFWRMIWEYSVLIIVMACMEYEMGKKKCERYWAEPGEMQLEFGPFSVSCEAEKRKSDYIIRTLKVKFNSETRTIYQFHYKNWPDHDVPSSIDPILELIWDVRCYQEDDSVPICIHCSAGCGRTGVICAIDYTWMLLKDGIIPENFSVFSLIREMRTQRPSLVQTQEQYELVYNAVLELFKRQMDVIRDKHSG

[1] = tested on: double-positive (DP) thymocytes; experiment: CD69 surface expression on mouse thymocytes; settings: […] µM, […] at 37°C, thymocytes from Nur77GFP mice; DMSO MFI=381
BMMC [2] = experiment: NF-AT luciferase reporter gene analysis in BMMC; format: cell-based, mouse
JTAg cells [3] = experiment: CD69 surface expression on JTAg cells; settings: […] µM, 4.5 hours at 37°C, resting JTAg cells; DMSO MFI=451
[4] = tested on: double-positive (DP) thymocytes; experiment: Nur77 expression; settings: […] µM, […] at 37°C, thymocytes from Nur77GFP mice; DMSO MFI=604
mice = experiment: Passive systemic anaphylaxis; format: in vivo, mouse; settings: PEP+/+ mice, 8b (20 µM) IP 1 h before DNP-HSA i.v., vs untreated groups
JTAg cells [5] = experiment: Phospho-flow cytometry of ZAP-70; settings: […] µM, 30 min pre-incubation, C305 stimulation 2 min, vs DMSO
BMMC [6] = experiment: Mast cell degranulation

Row | SMILES | improvement of LYP inhibitory potency compared to Core 1 (LYP) [fold] | CD69 expression, MFI [1] | basal and antigen-mediated NF-AT luciferase activity (BMMC [2]; PEP+/+ BMMC, C28 5 µM, 8b 5 and 20 µM for 1 h, DNP-HSA 8 h) | residual NF-AT activity (BMMC [2]; PEP−/− BMMC) | CD69 expression, median fluorescence intensity (MFI) (JTAg cells [3]) | Nur77 expression by GFP cell fluorescence, MFI [4] | susceptibility to passive systemic anaphylaxis (change in body temperature) (mice) | basal and TCR-stimulated phosphorylation of ZAP-70 on Tyr319 (JTAg cells [5]) | antigen-stimulated degranulation (release of β-hexosaminidase) (BMMC [6]; PEP+/+ BMMC, C28 5 µM, 8b 5 and 20 µM for 1 h, DNP-HSA 200 ng/ml) | residual degranulation (BMMC [6]; PEP−/− BMMC)
1 | O=C(O)c1cc2c(C#Cc3cccc(Cl)c3)c(-c3ccccc3)oc2cc1O [Compound 4c] | 50 | – | – | – | – | – | – | – | – | –
2 | O=C(O)c1cc2c(C#Cc3ccc(Oc4ccccc4)cc3)c(-c3ccccc3)oc2cc1O [Compound 4i] | 50 | – | – | – | – | – | – | – | – | –
3 | O=C(COc1ccc(-c2oc3cc(O)c(C(=O)O)cc3c2C#Cc2cccc(Cl)c2)cc1)NC1CC1 [Compound 8b, 3-((3-Chlorophenyl)ethynyl)-2-(4-(2-(cyclopropylamino)-2-oxoethoxy)phenyl)-6-hydroxybenzofuran-5-carboxylic Acid] | – | 758 | dose dependent down-regulation | No significant effect | 616 | 1120 | less susceptible to PSA | increased | down-regulated | Neither compunds affected residual degranulation
